Results on eight molecules are retold here after PubChem BioAssay (NCI).

The structures appear in SMILES notation.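 Five compound concentrations were applied to cells in 96-well plates for 48 hours; endpoints were derived by simple linear interpolation of the resulting dose-response curve. At the TGI there is no net growth.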

Test systems include HT29 colon; BT-549 breast; HOP-62 NSCLC; TK-10 renal; SK-OV-3 ovarian; K-562 leukemia; SNB-19 CNS; SR leukemia; SK-MEL-5 melanoma; SN12C renal; MDA-N; 786-0 renal; U251 CNS; UACC-62 melanoma; PC-3 prostate; NCI-H226 lung; CCRF-CEM leukemia; MDA-MB-231 breast; NCI-H522 lung; T-47D breast.
Assay in all cases: NCI tumour cell line growth inhibition, 48 h

Regarding `CC(=O)NC(C)(C)C1CC=C(C)CC1` (configuration not stated), the TGI in the test with HT29 colon, in the test on BT-549 breast, with HOP-62 NSCLC, in the test with TK-10 renal, with SK-OV-3 ovarian and with K-562 leukemia was greater than 100 µM in each case. Further, the TGI in the test with SNB-19 CNS, in the test on SR leukemia, in the test on SK-MEL-5 melanoma, in the test with SN12C renal, with MDA-N and with 786-0 renal was greater than 100 µM throughout. Besides, the TGI with U251 CNS, in the test with UACC-62 melanoma, in the test with PC-3 prostate, with NCI-H226 lung, with CCRF-CEM leukemia and with MDA-MB-231 breast was greater than 100 µM throughout.

Regarding `O=C1C=C(Sc2ccccc2)c2nccc3c2c1nc1ccccc13`, the TGI in the test with HT29 colon is 26.8 µM; in the test on BT-549 breast, 31.4 µM; with HOP-62 NSCLC, 32.2 µM; in the test on TK-10 renal, greater than 100 µM; with SK-OV-3 ovarian, greater than 100 µM; with SNB-19 CNS it was greater than 100 µM. Moreover, the TGI in the test on SR leukemia turned out to be 25.5 µM; in the test on SN12C renal it was 32.2 µM; with MDA-N, 33.3 µM; in the test on 786-0 renal, 49.6 µM; with U251 CNS, 33.6 µM; with UACC-62 melanoma, 29.2 µM. In addition, the TGI in the test with PC-3 prostate was 26.2 µM; in the test on NCI-H226 lung, greater than 100 µM; in the test with CCRF-CEM leukemia, 12.3 µM; in the test on NCI-H522 lung, 15.8 µM; in the test with MDA-MB-231 breast, 38 µM.

With `N#Cc1c(Cl)cccc1Oc1ccc(S(=O)(=O)/N=C(\NN)Nc2ccc(Cl)cc2)cc1`, the TGI was 96.2 µM in the test on HT29 colon; 67.8 µM with BT-549 breast; 59.6 µM in the test with HOP-62 NSCLC; 79.6 µM with TK-10 renal; greater than 100 µM in the test on SK-OV-3 ovarian; greater than 100 µM in the test with K-562 leukemia. In addition, the TGI in the test with SNB-19 CNS is greater than 100 µM; in the test with SK-MEL-5 melanoma it was 31.3 µM; in the test on SN12C renal, 64 µM; in the test on MDA-N, 66.4 µM; in the test with T-47D breast, 48.1 µM; in the test with 786-0 renal it was 61.1 µM. The TGI in the test with U251 CNS is greater than 100 µM; in the test with UACC-62 melanoma, 38.8 µM; in the test on PC-3 prostate it was 80.8 µM; with NCI-H226 lung, 60.9 µM; with MDA-MB-231 breast, 67.2 µM.

Take `COc1cc(C)c2c(=O)c3ccccc3n(C)c2c1`: the TGI was 29 µM in the test with HT29 colon; 52.7 µM in the test on BT-549 breast; greater than 100 µM in the test on TK-10 renal; greater than 100 µM in the test with SK-OV-3 ovarian; 39.1 µM in the test on K-562 leukemia; 98.6 µM in the test on SNB-19 CNS. For the same molecule, the TGI is 43 µM in the test on SR leukemia; 41.5 µM in the test with SN12C renal; greater than 100 µM in the test with MDA-N; greater than 100 µM in the test with 786-0 renal; 44.8 µM in the test on U251 CNS; 39.2 µM with UACC-62 melanoma. Also, the TGI is 78.2 µM in the test on PC-3 prostate; 69 µM in the test with NCI-H226 lung; 75.4 µM with CCRF-CEM leukemia; 5.74 µM with NCI-H522 lung; greater than 100 µM in the test on MDA-MB-231 breast.

Turning to `CC(=O)OCC1OC(n2c(-c3ccccc3)c(C(C)=O)c(-c3ccc(Cl)cc3)c(C#N)c2=S)C(OC(C)=O)C(OC(C)=O)C1OC(C)=O` (configuration not stated), the TGI with HT29 colon, with HOP-62 NSCLC, with TK-10 renal, in the test on SK-OV-3 ovarian, with K-562 leukemia and with SNB-19 CNS was greater than 100 µM in each case. For the same molecule, the TGI with SR leukemia, in the test with SK-MEL-5 melanoma, with SN12C renal, with MDA-N, in the test on T-47D breast and in the test on 786-0 renal was greater than 100 µM in each case. The TGI is greater than 100 µM with U251 CNS; greater than 100 µM with UACC-62 melanoma; 8.46 µM in the test on PC-3 prostate; greater than 100 µM in the test on NCI-H226 lung; greater than 100 µM in the test on CCRF-CEM leukemia; greater than 100 µM with NCI-H522 lung. For the same molecule, the TGI with MDA-MB-231 breast is greater than 100 µM.

Regarding `O=C(CCc1ccccc1)ON1C(=S)NC(c2ccccc2)(c2ccccc2)C1=S`, the TGI in the test on HT29 colon was 93.6 µM; in the test with BT-549 breast it was greater than 100 µM; in the test with HOP-62 NSCLC, greater than 100 µM; in the test with TK-10 renal it was greater than 100 µM; in the test on SK-OV-3 ovarian it was greater than 100 µM; with K-562 leukemia it was greater than 100 µM. Further, the TGI was greater than 100 µM in the test with SNB-19 CNS; 40.6 µM in the test on SK-MEL-5 melanoma; greater than 100 µM in the test on SN12C renal; greater than 100 µM with MDA-N; greater than 100 µM with T-47D breast; greater than 100 µM in the test on 786-0 renal. For the same molecule, the TGI in the test with U251 CNS was greater than 100 µM; in the test with UACC-62 melanoma, greater than 100 µM; in the test on PC-3 prostate it was 63.8 µM; with NCI-H226 lung it was 93.1 µM; in the test on CCRF-CEM leukemia it was 93.4 µM; in the test with MDA-MB-231 breast, greater than 100 µM.

Turning to `CC(C)(C)C(=O)C(C(=O)C(C)(C)C)C(=O)C(C)(C)C`, the TGI with HT29 colon, in the test with HOP-62 NSCLC, with TK-10 renal, in the test on SK-OV-3 ovarian, in the test on K-562 leukemia and with SNB-19 CNS was greater than 100 µM in each case. Also, the TGI in the test on SR leukemia, in the test with SK-MEL-5 melanoma, with SN12C renal, in the test with MDA-N, in the test on T-47D breast and in the test with 786-0 renal was greater than 100 µM throughout. Moreover, the TGI in the test with U251 CNS, in the test on PC-3 prostate, with NCI-H226 lung, in the test with CCRF-CEM leukemia, in the test on NCI-H522 lung and in the test on MDA-MB-231 breast was greater than 100 µM each time.

For `COc1ccc(C2CC(c3ccccc3)=Nc3c(-c4ccccc4)nnn32)cc1` (configuration not stated), the TGI in the test with HT29 colon, with HOP-62 NSCLC, in the test with SK-OV-3 ovarian, in the test on K-562 leukemia, in the test with SNB-19 CNS and with SR leukemia was greater than 100 µM throughout. The TGI in the test with SK-MEL-5 melanoma was greater than 100 µM; in the test with SN12C renal, greater than 100 µM; with MDA-N, greater than 100 µM; in the test with T-47D breast, 59.6 µM; with 786-0 renal, greater than 100 µM; with U251 CNS it was greater than 100 µM. The TGI in the test on UACC-62 melanoma was greater than 100 µM; with PC-3 prostate, greater than 100 µM; with NCI-H226 lung, greater than 100 µM; in the test with CCRF-CEM leukemia, greater than 100 µM; in the test with NCI-H522 lung it was 69.3 µM; in the test with MDA-MB-231 breast it was greater than 100 µM.
